According to the supplement of paper PMC10307832:

Tests used:
Experiment in all cases: relative viability (nuclei count vs DMSO), 5 days (fraction); higher = more cells survive
[1] = compound: CN1C=C(C2=CC=CC=C21)/C=C\3/C4=C(C=CC=N4)NC3=O + Cc1cc(Nc2cc(N3CCN(C)CC3)nc(Sc3ccc(NC(=O)C4CC4)cc3)n2)n[nH]1 [Tozasertib] (partner 0.1 µM)
In short: (§1)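 Relative viability equals treated-well nuclei counts divided by vehicle-well nuclei counts. Counts came from 4× images of lung cancer cell lines grown in 1536-well plates for 5 days after pin-tool dosing on the day after seeding. Dosing used one drug alone or a fixed anchor-drug dose plus five library-drug doses (not always all listed) in √10 steps, and values are medians of duplicate plates.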

Trametinib + Pictilisib = compound: CC(=O)Nc1cccc(-n2c(=O)n(C3CC3)c(=O)c3c(Nc4ccc(I)cc4F)n(C)c(=O)c(C)c32)c1 [Trametinib] + CS(=O)(=O)N1CCN(Cc2cc3nc(-c4cccc5[nH]ncc45)nc(N4CCOCC4)c3s2)CC1 [Pictilisib] (partner 1 µM)
In short: as §1

Trametinib + Olaparib = compound: CC(=O)Nc1cccc(-n2c(=O)n(C3CC3)c(=O)c3c(Nc4ccc(I)cc4F)n(C)c(=O)c(C)c32)c1 [Trametinib] + O=C(c1cc(Cc2n[nH]c(=O)c3ccccc23)ccc1F)N1CCN(C(=O)C2CC2)CC1 [Olaparib] (partner 8 µM)
In short: as §1

[2] = compound: CN1C=C(C2=CC=CC=C21)/C=C\3/C4=C(C=CC=N4)NC3=O + CS(=O)(=O)N1CCN(Cc2cc3nc(-c4cccc5[nH]ncc45)nc(N4CCOCC4)c3s2)CC1 [Pictilisib] (partner 1 µM)
In short: as §1

| Cell Line | relative viability ([1]; first compound 0.02 µM) | relative viability ([1]; first compound 0.06325 µM) | relative viability ([1]; first compound 0.2 µM) | relative viability ([1]; first compound 0.6325 µM) | relative viability ([1]; first compound 2 µM) | relative viability (Trametinib + Pictilisib; first compound 0.0025 µM) | relative viability (Trametinib + Pictilisib; first compound 0.007906 µM) | relative viability (Trametinib + Pictilisib; first compound 0.025 µM) | relative viability (Trametinib + Pictilisib; first compound 0.07906 µM) | relative viability (Trametinib + Pictilisib; first compound 0.25 µM) | relative viability (Trametinib + Olaparib; first compound 0.0025 µM) | relative viability (Trametinib + Olaparib; first compound 0.007906 µM) | relative viability (Trametinib + Olaparib; first compound 0.025 µM) | relative viability (Trametinib + Olaparib; first compound 0.07906 µM) | relative viability (Trametinib + Olaparib; first compound 0.25 µM) | relative viability ([2]; first compound 0.02 µM) | relative viability ([2]; first compound 0.06325 µM) | relative viability ([2]; first compound 0.6325 µM) | relative viability ([2]; first compound 2 µM) | relative viability ([2]; first compound 0.2 µM) |
| --- | --- | --- | --- | --- | --- | --- | --- | --- | --- | --- | --- | --- | --- | --- | --- | --- | --- | --- | --- | --- |
| NCI-H1395 | 0.703 | 0.72 | 0.681 | 0.721 | 0.821 | 0.607 | 0.631 | 0.576 | 0.453 | 0.65 | 0.441 | 0.458 | 0.419 | 0.463 | 0.392 | 0.605 | 0.581 | 0.602 | 0.577 | – |
| NCI-H23 | 0.48 | 0.365 | 0.304 | 0.328 | 0.227 | 0.348 | 0.357 | 0.217 | 0.27 | 0.189 | 0.287 | 0.269 | 0.269 | 0.239 | 0.147 | 0.5 | 0.502 | 0.451 | 0.485 | – |
| LOU-NH91 | 0.567 | 0.661 | 0.621 | 0.688 | 0.657 | 0.469 | 0.497 | 0.479 | 0.45 | 0.353 | 0.893 | 0.829 | 0.849 | 0.809 | 0.483 | 0.466 | 0.455 | 0.498 | 0.491 | 0.481 |
| NCI-H2009 | 0.73 | 0.613 | 0.741 | 0.859 | 0.831 | 0.502 | 0.366 | 0.148 | 0.206 | 0.208 | 0.693 | 0.768 | 0.508 | 0.338 | 0.308 | 0.804 | 0.672 | 0.8 | 0.792 | 0.682 |
| NCI-H358 | 0.0895 | 0.11 | 0.109 | 0.0977 | 0.117 | 0.311 | 0.328 | 0.233 | 0.22 | 0.363 | 0.47 | 0.303 | 0.186 | 0.185 | 0.127 | 0.33 | 0.319 | 0.338 | 0.387 | 0.301 |
| NCI-H2126 | 0.85 | 0.756 | 0.807 | 0.807 | 0.836 | 0.456 | 0.413 | 0.362 | 0.372 | 0.383 | 0.801 | 0.822 | 0.742 | 0.753 | 0.615 | 0.486 | 0.492 | 0.431 | 0.415 | 0.431 |
| ChaGo-K-1 | 0.194 | 0.221 | 0.212 | 0.214 | 0.201 | 0.841 | 0.47 | 0.694 | 0.261 | 0.461 | 0.435 | 0.405 | 0.405 | 0.412 | 0.359 | 0.607 | 0.62 | 0.403 | 0.571 | – |
| NCI-H1437 | 0.39 | 0.427 | 0.417 | 0.438 | 0.463 | 0.151 | 0.144 | 0.113 | 0.129 | 0.148 | 0.601 | 0.518 | 0.446 | 0.422 | 0.443 | 0.432 | 0.399 | 0.403 | 0.493 | 0.466 |
